Measured values reported in patent US7282522B2, “Hydroxamic acid derivatives and the method for preparing thereof” (Amorepacific Corporation, priority 2003, dated 2007).

Legend:
rabbits = experiment: Primary skin irritation test on animals (Draize P.I.I.); conditions: depilated back; for P.I.I. (Primary Irritation Index): 0.5 ml of 1% solution in 1,3-butylene glycol:ethanol 7:3, observed 24 or 72 hours later; for Evaluation (skin irritation): 1% solution, according to Draize's P.I.I.
Method: Test was performed using fifty-six (56) of healthy male rabbits whose backs were depilated. […] 0.5ml of the test sample solution was applied to the right site of 2.5 cm×2.5 cm region on each of the depilated back. Left site with no sample treated was compared as a control. 24 hours or 72 hours later, skin abnormality such as erythema, crust and edema was observed.
Based on the score of skin response, skin irritation was evaluated according to Draize's P.I.I.(Primary Irritation Index) and compared with retinoic acid.

collagenase = experiment: Inhibition of collagenase expression in human fibroblasts (ELISA kit); format: cell-based; conditions: 10^−4M, 24 hours, serum-free medium, relative to control group = 100
Procedure, shortened: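 Serum-starved human fibroblasts were treated for 24 h with 10^−4M test material in serum-free DMEM. Collagenase in the culture fluid was measured by sandwich ELISA read at 405 nm. Values are expressed as % of the untreated control (=100).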

procollagen type I = experiment: Effect on collagen biosynthesis (procollagen type I ELISA) in human fibroblasts; format: cell-based; conditions: 10^−4M, 24 hours, serum-free medium, relative to control group = 100
Method: Human fibroblasts were seeded into 24-well plate at 1×10^5 cells per well and then cultured to 90% of growth.
For each supernatant, procollagen production was measured with procollagen type I ELISA kit.

RARγ = biological target: T1, RARγ (Homo sapiens, UniProt P13631); experiment: RARE-luciferase reporter assay in transfected CV-1 cells (affinity to retinoic acid receptor), RARγ; format: cell-based; conditions: treated 24 hours at final concentration 10^−4M, control group 5000
T1 construct: expressed in transfected cells; host or cells: CV-1 cells (ATCC)
T1 sequence (P13631 1-454): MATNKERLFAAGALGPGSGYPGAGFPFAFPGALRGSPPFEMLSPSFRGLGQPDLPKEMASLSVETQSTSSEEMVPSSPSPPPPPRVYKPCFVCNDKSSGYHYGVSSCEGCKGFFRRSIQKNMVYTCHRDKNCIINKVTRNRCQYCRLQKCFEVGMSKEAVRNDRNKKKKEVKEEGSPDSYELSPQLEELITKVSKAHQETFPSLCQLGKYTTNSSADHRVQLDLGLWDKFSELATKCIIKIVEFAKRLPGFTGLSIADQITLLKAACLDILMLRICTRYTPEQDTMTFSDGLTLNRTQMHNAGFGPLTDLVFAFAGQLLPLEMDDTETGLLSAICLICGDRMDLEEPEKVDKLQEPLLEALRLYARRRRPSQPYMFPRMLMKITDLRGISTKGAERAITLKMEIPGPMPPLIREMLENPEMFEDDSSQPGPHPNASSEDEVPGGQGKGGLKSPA
Procedure, shortened: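 CV-1 cells in DMEM with 2.5% FBS, 5,000 per well, transfected 24 h after seeding with 10 ng pECE-RARα, pECE-RARγ, 100 ng RARE-tk-Luc reporter and 100 ng β-galactosidase vector. Read-out is RARE-driven luciferase.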

white guinea pigs = experiment: Phototoxicity test (UVA irradiation); conditions: for Evaluation (phototoxicity): 1%(w/v) solution, UVA 15 J/cm^2; for Phototoxic index: 50 μl of 1%(w/v) solution, UVA 320~380 nm 15 J/cm^2, observed 24, 48 and 72 hours
Method: Test was performed for twenty-five (25) of white guinea pigs whose backs were depilated and fixed. On both sides of the back, six(6) sites of 2 cm×2 cm, three(3) per side were sectioned. Right sites were compared as controls with no irradiation (UV non-irradiation sites) and left sites were irradiated (UV irradiation sites).
30 Minutes later, right sites were shielded with aluminum foil and UVA(320˜380 nm) was irradiated at a distance of about 10 cm therefrom using Waldmann to the final energy of 15 J/cm^2. After 24, 48 and 72 hours elapsed, skin response of guinea pig was observed. […] Evaluation was estimated for each elapsed time, i.e. 24, 48 and 72 hours and maximum scores were selected, to calculate irritation index by the following equation 3. Then, phototoxic index was calculated by the following equation 4. Irritation index=(ΣMaximum of erythema+ΣMaximum of edema)/Number of animals [Equation 3] Phototoxic index=(Irritation index of UV irradiation site)−(Irritation index of UV non-irradiation site) Equation 4]

RARα = biological target: T2, RARα (Homo sapiens, UniProt P10276); experiment: RARE-luciferase reporter assay in transfected CV-1 cells (affinity to retinoic acid receptor), RARα; format: cell-based; conditions: treated 24 hours at final concentration 10^−4M, control group 1000
T2 construct: expressed in transfected cells; host or cells: CV-1 cells (ATCC)
T2 sequence (P10276 1-462): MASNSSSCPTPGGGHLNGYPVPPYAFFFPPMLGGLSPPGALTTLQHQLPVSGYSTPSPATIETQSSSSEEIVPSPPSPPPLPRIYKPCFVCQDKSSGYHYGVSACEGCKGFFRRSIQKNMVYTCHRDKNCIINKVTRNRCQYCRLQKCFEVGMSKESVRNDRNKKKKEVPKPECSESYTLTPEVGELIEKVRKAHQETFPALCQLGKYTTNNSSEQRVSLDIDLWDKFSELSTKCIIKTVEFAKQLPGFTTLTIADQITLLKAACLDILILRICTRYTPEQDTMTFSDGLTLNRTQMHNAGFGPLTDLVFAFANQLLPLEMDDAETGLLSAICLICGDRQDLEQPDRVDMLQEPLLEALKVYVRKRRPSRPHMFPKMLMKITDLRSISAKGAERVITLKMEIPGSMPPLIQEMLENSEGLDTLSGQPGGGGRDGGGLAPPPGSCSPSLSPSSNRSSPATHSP
Procedure, shortened: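 CV-1 cells co-transfected with pECE-RARα or pECE-RARγ, RARE-tk-Luc reporter and β-galactosidase vector. Starting 24 h post-transfection, cells were treated for 24 h with compounds at a final 10^−4M; luciferase reporter read-out.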

elastase = experiment: Inhibition of elastase expression in human fibroblasts (ELISA kit); format: cell-based; conditions: 10^−4M, 24 hours, serum-free medium, relative to control group = 100
Procedure, shortened: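 Elastase in fibroblast culture fluid quantified by sandwich ELISA: 3 h capture, then chromophore-conjugated secondary antibody, then colour development, stopped with 1M sulfuric acid. Absorbance read at 405 nm. Expression given as % of the untreated control absorbance, with control set to 100.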

| Compound | P.I.I. (Primary Irritation Index) (rabbits) | Evaluation (skin irritation) (rabbits) | Collagenase expression (%) (collagenase) | Collagen biosynthesis (%) (procollagen type I) | Luciferase activity RARγ (RARγ) | Evaluation (phototoxicity) (white guinea pigs) | Phototoxic index (white guinea pigs) | Luciferase activity RARα (RARα) | Elastase expression (%) (elastase) |
| --- | --- | --- | --- | --- | --- | --- | --- | --- | --- |
| CCc1ccc(C(=O)Nc2ccc(CC(=O)NO)cc2)cc1 [Example 26, N-[4-(N-hydroxycarbamoylmethyl)phenyl][4-ethylphenyl]carboxyamide] | 0.321 | No irritation | 78% | 123% | 11200 | No phototoxicity (lower value than 0.5, criterion value to be estimated as no phototoxicity) | 0 | 17500 | 86% |
| CCCc1ccc(C(=O)Nc2ccc(CC(=O)NO)cc2)cc1 [Example 27, N-[4-(N-hydroxycarbamoylmethyl)phenyl][4-propylphenyl]carboxyamide] | 0.568 | No irritation | 87% | 112% | 11300 | No phototoxicity (lower value than 0.5, criterion value to be estimated as no phototoxicity) | 0 | 13920 | 87% |
| CC(C)c1ccc(C(=O)Nc2ccc(CC(=O)NO)cc2)cc1 [Example 28, N-[4-(N-hydroxycarbamoylmethyl)phenyl][4-isopropylphenyl]carboxyamide] | 0.765 | No irritation | 67% | 121% | 10700 | No phototoxicity (lower value than 0.5, criterion value to be estimated as no phototoxicity) | 0 | 12900 | 79% |
| CCCCc1ccc(C(=O)Nc2ccc(CC(=O)NO)cc2)cc1 [Example 29, N-[4-(N-hydroxycarbamoylmethyl)phenyl][4-butylphenyl]carboxyamide] | 0.234 | No irritation | 77% | 132% | 10600 | No phototoxicity (lower value than 0.5, criterion value to be estimated as no phototoxicity) | 0 | 18900 | 70% |
| CC(C)(C)c1ccc(C(=O)Nc2ccc(CC(=O)NO)cc2)cc1 [Example 30, N-[4-(N-hydroxycarbamoylmethyl)phenyl][4-tert-butylphenyl]carboxyamide] | 0.456 | No irritation | 83% | 121% | 12000 | No phototoxicity (lower value than 0.5, criterion value to be estimated as no phototoxicity) | 0 | 23500 | 69% |
| Cc1ccc(C(=O)Nc2ccc(CC(=O)NO)cc2)cc1C [Example 31, N-[4-(N-hydroxycarbamoylmethyl)phenyl][3,4-dimethylphenyl]carboxyamide] | 0.567 | No irritation | 81% | 109% | 10700 | No phototoxicity (lower value than 0.5, criterion value to be estimated as no phototoxicity) | 0 | 23100 | 63% |
| O=C(Cc1ccc(NC(=O)C23CC4CC(CC(C4)C2)C3)cc1)NO [Example 32, N-[4-(N-hydroxycarbamoylmethyl)phenyl]adamantyl carboxyamide] | 0.375 | No irritation | 79% | 125% | 10000 | No phototoxicity (lower value than 0.5, criterion value to be estimated as no phototoxicity) | 0 | 18000 | 74% |
